Data on five compounds can be found in US11691960B2, “2-[thiophen-2-yl)formamido]-N-(phenyl)-2-methylpropanamide derivatives and the use thereof as medicament” (Boehringer Ingelheim International GmbH, priority 2020, dated 2023).

Data set [1] deals with human hepatocytes. Briefly: Assay D: metabolic stability in human hepatocytes. Type of data set: in vitro ADME. The conditions noted are these: for Hepatocyte stability Assay D: human hepatocytes, 1 μM, % of liver blood flow, mean +− standard deviation. As to the method:
Assay D. Assessment of Metabolic Stability in Human Hepatocytes
The metabolic degradation of the test compound is assayed in a hepatocyte suspension. After recovery from cryopreservation, human hepatocytes are incubated in Dulbecco's modified eagle medium supplemented with 3.5 μg glucagon/500 mL, 2.5 mg insulin/500 mL and 3.75 mg/500 mL hydrocortisone) containing 5% or 50% human serum or in absence of serum.
Following a 30 min preincubation in a cell culture incubator (37° C., 10% CO2), 5 μl of test compound solution (80 μM; derived from a 2 mM DMSO stock solution by dilution 1:25 with medium) are added into 395 μl hepatocyte suspension, resulting in a final cell density of 1 Mio cells/mL, a final test compound concentration of 1 μM, and a final DMSO concentration of 0.05%.
The cells are incubated for six hours (incubator, orbital shaker) and samples (25 μl) are removed from the incubation after 0, 0.5, 1, 2, 4 and 6 hours. Samples are transferred into acetonitrile and pelleted by centrifugation (5 min). The supernatant is transferred to a new 96-deepwell plate, evaporated under nitrogen and resuspended prior to analysis of decline of parent compound by HPLC-MS/MS.
CLint is calculated as follows: CL_INTRINSIC=k/CD×1000/60 k: slope of the regression line for parent decline [h^−1], CD: cell density of vital cells [10e6 cells/mL],
The calculated in vitro hepatic intrinsic clearance is scaled up to the intrinsic in vivo hepatic Clearance and used to predict hepatic in vivo blood clearance (CL) by the use of a liver model (well stirred model): CL_INTRINSIC_INVIVO [ml/min/kg]=(CL_INTRINSIC [μL/min/10e6 cells]×hepatocellularity [10e6 cells/g liver]×liver factor [g/kg bodyweight])/1000 CL[ml/min/kg]=CL_INTRINSIC_INVIVO [ml/min/kg]×hepatic blood flow [ml/min/kg]/(CL_INTRINSIC_INVIVO[ml/min/kg]+hepatic blood flow [ml/min/kg])
Results are expressed as percentage of hepatic blood flow: QH[%]=CL[ml/min/kg]/hepatic blood flow [ml/min/kg])
Hepatocellularity, human: 120×10e6 cells/g liver
Liver factor, human: 25.7 g/kg bodyweight
Blood flow, human: 20.7 ml/(min×kg)

Data set [2] deals with human Factor Xa (Homo sapiens (Human), UniProt P00742). Briefly: Assay C: human Factor Xa chromogenic substrate assay. To be noted: for IC50: human Factor Xa 0.86 nM, chromogenic substrate S2765; for Selectivity Assay C/Assay A: ratio IC50 Factor Xa / IC50 IDO1. Type of data set: biochemical. As to the method:
Assay C. In Vitro Testing of Human Factor Xa Potency:
Measurement of active human Factor Xa using a specific chromogenic substrate which is labeled with a p-nitro-anilino group (pNA). The cleavage in between the binding of the peptide substrate and the pNA-group is followed by a color change, which can be detected at 405 nm. The amount of cleaved substrate is directly proportional to the amount of active Xa.
[…] (100 U) human Factor Xa (Enzyme Research Laboratories; HFXa1011) were solved in 0.444 ml H2O (Millipore), which accords to a stock solution of 19.28 μM or 225 U/ml. Further dilutions were made in the assay buffer (Tris 100 mM, NaCL 150 mM, adjusted to a pH of 7.8 with HCL, containing 0.1% BSA and 0.05% Tween20). 25 mg (1 vial) of the chromogenic substrate S2765 (Chromogenix; S2765) was solved in 3.5 ml H2O (Millipore) to achieve a stock solution of 10 mM.
Compounds were solved and diluted in DMSO where the final dilution in the assay is 1:10 resulting in a final concentration of 1% DMSO.
• the prefinal dilution step was 1:10 in the assay buffer containing 11% DMSO resulting in 10% DMSO • final dilution in the assay is 1:10 resulting in a final concentration of 1% DMSO
Compounds were tested at final concentrations of 10 μM to 0.003 nM or lower. 5 μl human factor Xa (final concentration 0.86 nM), 2 μl compound dilution or assay buffer (containing 10% DMSO) and 8 μl assay buffer were pipetted in triplicates into a 384-well plate and incubated in the Thermomix at 24° C. for 10 minutes.
After addition of 5 μl chromogenic substrate (final concentration 0.5 mM) the enzyme-substrate reaction started and the kinetic measurement with the SpectraMax Monochromator was started within 1-2 minutes. • Parameter of measurement: (Spectra ax, Monochromator) • Absorbance; 1.LM 405 nM • Kinetic: 16 min each 2nd minute (9 times) • Negative Control (NC) 5 μl human factor Xa+10 μl assay buffer+5 μl Substrate • Positive Control (PC): 5 μl human factor Xa+2 μl Nafamostat (commercially available, final concentration: 1 μM)+8 μl assay buffer+5 μl Substrate • Blank (optional): 15 μl assay buffer+5 μl Substrate
Calculation of IC50, KI and the % effect at the highest concentration (Ratio)
For the calculation the average of the Vmax-values in between 120 sec to 720 sec were taken.
A x/y-Plot was created: x=log (M, Compound); y=vmax (drfu/min)
The data were analyzed with the curve fitting model: log (inhibitor) vs. response—Variable slope (four parameters)
The results of this fit were Top, Bottom, Log (IC50, M), Hillslope and IC50 (M)

Data set [3] deals with human androgen receptor (Homo sapiens (Human), UniProt P10275). Briefly: Assay B: human androgen receptor luciferase reporter assay (Indigo Biosciences). The format is cell-based. The conditions noted are these: for Selectivity Assay B/Assay A: ratio IC50 androgen receptor / IC50 IDO1. The text has this: Assay B. In Vitro Testing of Androgen Receptor Potency:
The human androgen receptor (AR) assay was run using Product #IB03001 from Indigo Biosciences. The cell line provided in this kit carries a reporter gene, induced upon AR stimulation. This reporter gene is cDNA encoding for beetle luciferase, a 62 kD protein originating from the North American firefly (Photinus pyralis). This luciferase catalyzes the mono-oxidation of D-luciferin yielding oxyluciferin, adenosine monophosphate, pyrophosphate, CO2, and photon emission. The luminescence intensity of the reaction is quantified using a luminometer.
To run the assay, the cells are thawed by adding pre-warmed cell recovery medium to each tube, then placed in a 37° C. water bath. 30000 viable cells in 200 μl are plated (collagen coated plates) and incubated at 37° C., ≥85% humidity, 5% CO2 for 24 hours. Media is replaced with compound screening medium. Cells are then challenged with 125 pM (EC80) 6a-Fl Testosterone and compounds are applied in half logarithmic dilutions from 10 μM to 10 nM. Assay plates are then incubated at 37° C., ≥85% humidity, 5% CO2 for 22-24 hours. Media is replaced with luciferase detection reagent and allowed 5 minutes to equilibrate prior to luminescence quantification.
Data Analysis consisted of calculating percentage of control between 100% (Negative control:6a-Fl Testosterone) and 0 (positive control: no 6a-FL Testosterone). Fitting of normalized values was made 4-Parameter sigmoidal binding curve (Log[conc]) vs. signal.

Bounds are passed on as bounds.

human androgen receptor, sequence (P10275 whole entry): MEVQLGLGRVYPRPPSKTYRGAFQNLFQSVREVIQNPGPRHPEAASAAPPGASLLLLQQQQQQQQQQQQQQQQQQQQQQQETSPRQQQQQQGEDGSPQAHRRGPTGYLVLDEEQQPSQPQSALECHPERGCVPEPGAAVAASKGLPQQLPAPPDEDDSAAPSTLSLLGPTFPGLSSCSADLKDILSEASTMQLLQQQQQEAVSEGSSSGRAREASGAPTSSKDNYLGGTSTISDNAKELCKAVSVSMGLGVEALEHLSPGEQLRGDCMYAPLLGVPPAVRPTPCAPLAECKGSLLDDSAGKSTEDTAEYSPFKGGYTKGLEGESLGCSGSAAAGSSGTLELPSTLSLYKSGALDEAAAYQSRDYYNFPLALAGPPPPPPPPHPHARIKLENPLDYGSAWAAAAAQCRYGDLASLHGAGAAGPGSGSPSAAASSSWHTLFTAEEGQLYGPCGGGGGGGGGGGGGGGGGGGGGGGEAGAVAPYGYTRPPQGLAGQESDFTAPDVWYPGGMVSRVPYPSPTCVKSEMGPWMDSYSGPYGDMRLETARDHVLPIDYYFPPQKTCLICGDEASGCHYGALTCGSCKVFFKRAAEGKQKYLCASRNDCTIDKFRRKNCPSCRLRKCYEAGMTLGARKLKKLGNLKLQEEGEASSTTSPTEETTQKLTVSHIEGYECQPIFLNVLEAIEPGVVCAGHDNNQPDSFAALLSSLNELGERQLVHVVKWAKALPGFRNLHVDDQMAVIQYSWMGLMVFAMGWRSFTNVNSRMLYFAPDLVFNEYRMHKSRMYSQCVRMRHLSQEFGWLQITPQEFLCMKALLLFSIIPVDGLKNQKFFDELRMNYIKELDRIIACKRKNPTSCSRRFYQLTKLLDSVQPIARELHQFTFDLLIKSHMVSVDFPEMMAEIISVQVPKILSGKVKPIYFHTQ
human Factor Xa, sequence (P00742 235-488): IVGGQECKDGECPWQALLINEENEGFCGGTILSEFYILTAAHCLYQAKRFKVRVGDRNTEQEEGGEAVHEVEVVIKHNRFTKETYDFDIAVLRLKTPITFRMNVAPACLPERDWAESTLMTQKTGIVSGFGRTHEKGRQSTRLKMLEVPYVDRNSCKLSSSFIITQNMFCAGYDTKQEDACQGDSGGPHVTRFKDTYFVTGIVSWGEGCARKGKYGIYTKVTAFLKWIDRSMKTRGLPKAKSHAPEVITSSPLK
human Factor Xa, sequence (P00742 41-179 partner): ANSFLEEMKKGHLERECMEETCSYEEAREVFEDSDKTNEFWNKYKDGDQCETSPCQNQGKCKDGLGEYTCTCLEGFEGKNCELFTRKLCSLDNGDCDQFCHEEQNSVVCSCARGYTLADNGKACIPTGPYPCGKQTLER

`CC(C)(NC(=O)c1ccc(Br)s1)C(=O)Nc1ccc(Cl)c(F)c1` [Example 1, 2-[(5-bromothiophen-2-yl)formamido]-N-(4-chloro-3-fluorophenyl)-2-methylpropanamide]: the “Hepatocyte stability Assay D” value in data set [1] is recorded as less than 4.1 % QH. Moreover, in data set [2], the IC50 was more than 10 µM and the “Selectivity Assay C/Assay A” value is given as more than 57. For the same compound, in data set [3], the “Selectivity Assay B/Assay A” value came to 43.

On to `CC(C)(NC(=O)c1cccs1)C(=O)Nc1ccc(C#N)c(C(F)(F)F)c1` [WO98/22432 example 53], for which the “metabolic stability in human hepatocytes (in words)” value (“metabolic stability” for short) in data set [1] was “very low metabolic stability”. Further, in data set [3], the “antiandrogenic activity (in words)” value is “have antiandrogenic activity” and the “Selectivity Assay B/Assay A” value was found to be 0.7.

As for `CC(C)(NC(=O)c1ccc(Br)s1)C(=O)Nc1ccc(Br)cc1` [Example 2, 2-[(5-bromothiophen-2-yl)formamido]-N-(4-bromophenyl)-2-methylpropanamide], the “Hepatocyte stability Assay D” value in data set [1] is on record as less than 4.1 % QH. Besides, in data set [2], the IC50 is more than 10 µM and the “Selectivity Assay C/Assay A” value was more than 52. The IC50 in data set [3] (challenge with 125 pM (EC80) 6a-Fl Testosterone, mean +− standard deviation) was more than 10 µM. Besides, in data set [3], the “Selectivity Assay B/Assay A” value is recorded as more than 52.

On to `CC1CCC(C)N1c1ccc(NC(=O)C(C)(C)NC(=O)c2ccc(Cl)s2)cc1` (stereo not shown) [WO2005/111013 Ex. 22], for which the “metabolic stability” value in data set [1] is “medium metabolic stability”. For the same compound, in data set [2], the “inhibition of the human Factor Xa enzyme (in words)” value is on record as “inhibits the human Factor Xa enzyme”, half-maximal inhibition (IC50) required 0.429 µM and the “Selectivity Assay C/Assay A” value stood at 0.37.

With `Cc1ccc(C(=O)NC(C)(C)C(=O)Nc2ccc(C#N)c(C(F)(F)F)c2)s1` [WO98/22432 example 86], the “metabolic stability” value in data set [1] is “very low metabolic stability”. Further, in data set [3], the “antiandrogenic activity (in words)” value is “have antiandrogenic activity” and the “Selectivity Assay B/Assay A” value is recorded as 4.9.
